Results as given in patent US20220324796A1, “ANTIBIOTIC COMPOUNDS” (The General Hospital Corporation, priority 2019, published 2022).
Converted amounts (≈) assume the structure as drawn.

Columns and labels:
[1] = test system: exponential phase MRSA MW2 cells; assay: Cell lysis by optical density; assay type: cell-based, S. aureus; details: 10 μg/mL, 4 h
MRSA BF4 = assay: MIC assay (micro-dilution); assay type: cell-based, S. aureus; details: Staphylococcus aureus; daptomycin-intermediate resistant MRSA strain BF4
Protocol: (§1) Minimal inhibitory concentration (MIC) assay. The MICs of antibiotics were determined by the standard micro-dilution method recommended by the Clinical and Laboratory Standards Institute. MIC assays were conducted in biological triplicate.

[2] = Giant unilamellar vesicles (GUVs) assay, mammalian mimetic
Protocol: Giant unilamellar vesicles (GUVs) assay. GUVs were prepared by slightly modifying the electroformation method described previously. 1,2-dioleoyl-sn-glycero-3-phosphocholine (DOPC), 1,2-dioleoyl-sn-glycero-3-phospho-(1′-rac-glycerol) (DOPG), 1-palmitoyl-2-oleoyl-glycero-3-phosphocholine (POPC), cholesterol (ovine wool) and 1,2-dioleoyl-sn-glycero-3-phosphoethanolamine-N-(lissamine rhodamine B sulfonyl) (18:1 Liss Rhod PE) were purchased from Avanti Polar Lipids (Alabaster, Ala., USA). 4 mM lipid mixtures consisting of DOPC/DOPG/18:1 Liss Rhod PE (7:3:0.005) and POPC/cholesterol/18:1 Liss Rhod PE (7:3:0.005) were dissolved in chloroform respectively. Same procedure was used to prepare both kinds of GUVs. Indium tin oxide (ITO)-coated slides (50×75×1.1 mm, Delta Technologies, Loveland, Colo., USA) were coated with […] of the lipid mixture and dried in a vacuum chamber for 2 h to remove chloroform. An electroformation chamber was made by placing a 2 mm thick Teflon spacer between the two lipid-coated ITO slides. […] After adding 1 μl of compound solution to a well (final compound concentration: 1× MIC), the GUVs were observed and imaged with an optical microscope equipped with fluorescence contrast and a digital camera (63x objectives, Axio Observer. A1 & AxioCam MRm, Zeiss, Germany). […]

S. aureus MW2 = assay: Transmission electron microscopy; assay type: cell-based; details: 10× MIC, 2 h
Protocol: Transmission electron microscopy. S. aureus MW2 was grown to exponential phase (OD600=˜0.4) at 37° C. Bacterial cultures were then treated with 10× MIC of bithionol or 0.1% DMSO (control) at 37° C. for 2 h. 1 mL of the treated bacterial samples were fixed with the same volume of a 2× fixative, a mixture of 5% glutaraldehyde, 2.5% paraformaldehyde and 0.06% picric acid in 0.2 M sodium cacodylate buffer (pH 7.4). Fixed cells were washed in 0.1 M cacodylate buffer and post-fixed with 1% Osmium tetroxide (OsO4)/1.5% Potassium ferrocyanide (KFeCN6) for 1 h. The fixed cells were washed twice in water, once in maleate buffer, and incubated in the maleate buffer containing 1% uranyl acetate for lh. Cells were then washed twice in water and subsequently dehydrated in an alcohol gradient series (10 min each; 50%, 70%, 90%, 2×10 min 100%). The cells were then incubated in propyleneoxide for 1 h, infiltrated overnight in a 1:1 mixture of propyleneoxide and Spurr's low viscosity resin (Electron Microscopy sciences, Hatfield, Pa.) and polymerized at 60° C. for 48 h. Ultrathin sections (about 60 nm) were cut on a Reichert Ultracut-S microtome (Leica Microsystem, Wetzlar, Germany), picked up onto copper grids, and stained with lead citrate. Micrographs of the cells were taken using a JEOL 1200EX transmission electron microscope (Harvard Medical School EM facility).

[3] = test system: panel of 27 Gram-positive pathogens; assay: MIC assay, panel of Gram-positive pathogens; assay type: cell-based; details: Staphylococcus aureus; range over panel of 27 Gram-positive pathogens incl. VRSA and resistant Enterococcal strains (FIG. 6); read-out: minimum inhibitory concentrations
Protocol: Bacterial strains and growth conditions. S. aureus strains were grown in tryptic soy broth (TSB) (BD, Franklin Lakes, N.J., USA). E. faecium and E. faecalis strains were grown in brain-heart infusion (BHI) broth (BD, Franklin Lakes, N.J., USA), and four Gram-negative species, Klebsiella pneumoniae, Acinetobacter baumannii, Pseudomonas aeruginosa, and Enterobacter aerogenes were grown in Luria Bertani (LB) broth (BD, Franklin Lakes, N.J., USA). All bacteria were grown at 37° C. at 200 r.p.m.
as §1

[4] = test system: HKC-8 human renal proximal cells; assay: Mammalian membrane permeability assay (SYTOX Green); assay type: cell-based; details: up to 64 μg/mL
Protocol: Mammalian membrane permeability assay. Human renal proximal tubular epithelial cells (HKC-8) were grown in Dulbecco' s modified Eagle F-12 media mixed 1:1 with Ham's F-12 (DMEM/F-12, Life Technologies, Carlsbad, Calif., USA) supplemented with 10% FBS and 4 mM L-glutamine at 37° C. in 5% CO2. For membrane permeability assays, HKC-8 was cultured in black, clear-bottom, 96-well plates (Corning no. 3904) in 100 μl/well of the growth media to reach ˜70% confluence. After washing the cells twice with PBS, 50 μl of 0.25 μM SYTOX Green was added to each well. After incubating the cells at 37° C. in 5% CO2 for 15 min, the cells were treated with a range of concentrations of bithionol or the cholesterol binding detergent saponin (positive control). Fluorescence was measured at room temperature using a spectrophotometer (SpectraMax M2, Molecular Devices) with excitation and emission wavelengths of 485 nm and 525 nm, respectively. The assay was carried out in biological duplicate.
To visualize HKC-8 cells with compromised membranes, HKC-8 was cultured in 24-well plates (Corning no. 3527) until —70% confluence. After washing the cells twice with PBS, 500 μl of 1 μM SYTOX Green was added to each well. The cells were incubated at 37° C. in 5% CO2 for 15 min and then treated with 32 μg/mL (final concentration) bithionol or saponin for 1 h. […]

## Oc1c(Cl)cc(Cl)cc1Sc1cc(Cl)cc(Cl)c1O [bithionol, 6,6′-thio-bis-(2,4-dichlorophenol)]
[1]
  optical density of S. aureus cells (bacteriolytic activity): time-dependent decrease in optical density
MRSA BF4
  MIC: 0.5 µg/mL (≈ 1.4 µM)
[2]
  effect on 7POPC/3 cholesterol GUVs: did not cause observable effects
S. aureus MW2
  TEM findings: disrupts MRSA membranes
[3]
  MIC: 0.5 to 2 µg/mL (≈ 1.4 to 5.62 µM)
[4]
  SYTOX Green membrane permeabilization of HKC-8 cells: did not induce SYTOX Green membrane permeabilization
